Laboratory results: ChEMBL document CHEMBL1153501, “3,4-Disubstituted benzofuran P1' MMP-13 inhibitors: optimization of selectivity and reduction of protein binding” (Bioorg Med Chem Lett, 2009)

How the values were obtained:
[1] = Selectivity ratio of IC50 for MMP2 to IC50 for MMP13
Collagenase 3 = Collagenase 3 (Homo sapiens, UniProt P45452); test: Inhibition of MMP13
[2] = molecular target: 72 kDa type IV collagenase (Homo sapiens, UniProt P08253); test: Inhibition of MMP2
[3] = molecular target: Matrix metalloproteinase-9 (Homo sapiens, UniProt P14780); test: Inhibition of MMP9
Chain of Matrix metalloproteinase-9 (P14780 whole entry): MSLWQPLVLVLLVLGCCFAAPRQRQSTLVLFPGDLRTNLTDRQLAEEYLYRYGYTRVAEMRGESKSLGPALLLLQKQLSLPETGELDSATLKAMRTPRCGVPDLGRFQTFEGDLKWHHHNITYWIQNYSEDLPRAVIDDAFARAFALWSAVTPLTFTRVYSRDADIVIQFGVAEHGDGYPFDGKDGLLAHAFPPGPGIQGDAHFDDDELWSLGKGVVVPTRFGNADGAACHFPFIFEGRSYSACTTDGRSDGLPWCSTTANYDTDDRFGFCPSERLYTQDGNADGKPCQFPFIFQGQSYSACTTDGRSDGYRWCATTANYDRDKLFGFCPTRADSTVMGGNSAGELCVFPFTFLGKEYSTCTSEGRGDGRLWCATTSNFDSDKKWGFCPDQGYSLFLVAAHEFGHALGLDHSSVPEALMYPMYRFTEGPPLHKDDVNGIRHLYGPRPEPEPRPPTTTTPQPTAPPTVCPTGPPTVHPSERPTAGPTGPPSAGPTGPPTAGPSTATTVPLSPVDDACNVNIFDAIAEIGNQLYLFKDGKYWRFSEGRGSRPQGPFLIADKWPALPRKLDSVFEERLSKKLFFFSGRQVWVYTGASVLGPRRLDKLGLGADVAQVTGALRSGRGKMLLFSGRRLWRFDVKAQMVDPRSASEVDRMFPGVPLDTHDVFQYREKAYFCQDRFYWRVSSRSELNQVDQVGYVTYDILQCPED

Interstitial collagenase = Interstitial collagenase (Homo sapiens, UniProt P03956); test: Inhibition of MMP1
Chain of Interstitial collagenase (P03956 whole entry, looked up): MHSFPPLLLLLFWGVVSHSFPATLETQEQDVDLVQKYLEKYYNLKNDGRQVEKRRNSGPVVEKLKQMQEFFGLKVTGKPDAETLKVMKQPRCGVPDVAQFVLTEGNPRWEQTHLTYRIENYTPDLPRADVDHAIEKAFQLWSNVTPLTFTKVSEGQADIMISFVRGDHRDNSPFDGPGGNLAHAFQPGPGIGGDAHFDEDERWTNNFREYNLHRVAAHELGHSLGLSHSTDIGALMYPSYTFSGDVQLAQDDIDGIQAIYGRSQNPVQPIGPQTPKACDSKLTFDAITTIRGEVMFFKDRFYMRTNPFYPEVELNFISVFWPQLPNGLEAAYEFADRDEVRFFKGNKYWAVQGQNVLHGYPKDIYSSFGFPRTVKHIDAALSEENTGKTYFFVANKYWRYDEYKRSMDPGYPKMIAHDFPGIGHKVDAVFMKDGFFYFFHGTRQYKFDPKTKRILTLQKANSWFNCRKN

[4] = molecular target: Matrix metalloproteinase-14 (Homo sapiens, UniProt P50281); test: Inhibition of MMP14
[5] = molecular target: T1, A disintegrin and metalloproteinase with thrombospondin motifs 4 (Homo sapiens, UniProt O75173); test: Inhibition of aggrecanase-1
T1 sequence (O75173 whole entry): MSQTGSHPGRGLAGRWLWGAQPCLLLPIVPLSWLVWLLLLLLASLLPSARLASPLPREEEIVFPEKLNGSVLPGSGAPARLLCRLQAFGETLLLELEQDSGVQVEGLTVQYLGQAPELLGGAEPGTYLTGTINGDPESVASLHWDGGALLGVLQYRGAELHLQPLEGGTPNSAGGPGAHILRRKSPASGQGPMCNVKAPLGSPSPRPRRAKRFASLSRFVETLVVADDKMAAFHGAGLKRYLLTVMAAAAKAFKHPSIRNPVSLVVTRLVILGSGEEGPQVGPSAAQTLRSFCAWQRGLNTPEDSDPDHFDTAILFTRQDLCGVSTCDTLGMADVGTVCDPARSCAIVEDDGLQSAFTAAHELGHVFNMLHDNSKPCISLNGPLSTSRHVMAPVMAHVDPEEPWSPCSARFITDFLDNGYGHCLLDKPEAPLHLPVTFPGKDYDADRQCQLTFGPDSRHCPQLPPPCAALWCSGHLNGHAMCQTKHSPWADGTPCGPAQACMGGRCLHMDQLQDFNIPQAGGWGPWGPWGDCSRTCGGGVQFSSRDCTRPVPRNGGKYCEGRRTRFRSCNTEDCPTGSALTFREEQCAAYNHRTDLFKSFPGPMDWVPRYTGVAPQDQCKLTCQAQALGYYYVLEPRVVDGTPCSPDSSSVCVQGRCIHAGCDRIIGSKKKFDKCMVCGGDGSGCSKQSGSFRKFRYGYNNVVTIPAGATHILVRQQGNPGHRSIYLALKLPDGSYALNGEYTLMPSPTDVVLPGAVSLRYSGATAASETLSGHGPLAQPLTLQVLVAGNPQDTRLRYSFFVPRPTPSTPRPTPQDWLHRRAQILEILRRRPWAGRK

[6] = molecular target: Collagenase 3 (Bos taurus) (UniProt O77656); test: Inhibition of IL1-stimulated MMP13-mediated bovine articular cartilage collagen degradation assessed as hydroxyproline content at 1 uM after 17 days
[7] = molecular target: Collagenase 3 (Bos taurus) (UniProt O77656); test: Inhibition of IL1-stimulated MMP13-mediated bovine articular cartilage collagen degradation assessed as hydroxyproline content at 0.1 uM after 17 days
[8] = molecular target: Collagenase 3 (Bos taurus) (UniProt O77656); test: Inhibition of IL1-stimulated MMP13-mediated bovine articular cartilage collagen degradation assessed as hydroxyproline content at 0.01 uM after 17 days
albumin = albumin (Oryctolagus cuniculus, UniProt P49065); test: Protein binding in rabbit serum albumin by equilibrium dialysis assay; type: ADME; conditions: read-out: PB
Chain of albumin (P49065 whole entry): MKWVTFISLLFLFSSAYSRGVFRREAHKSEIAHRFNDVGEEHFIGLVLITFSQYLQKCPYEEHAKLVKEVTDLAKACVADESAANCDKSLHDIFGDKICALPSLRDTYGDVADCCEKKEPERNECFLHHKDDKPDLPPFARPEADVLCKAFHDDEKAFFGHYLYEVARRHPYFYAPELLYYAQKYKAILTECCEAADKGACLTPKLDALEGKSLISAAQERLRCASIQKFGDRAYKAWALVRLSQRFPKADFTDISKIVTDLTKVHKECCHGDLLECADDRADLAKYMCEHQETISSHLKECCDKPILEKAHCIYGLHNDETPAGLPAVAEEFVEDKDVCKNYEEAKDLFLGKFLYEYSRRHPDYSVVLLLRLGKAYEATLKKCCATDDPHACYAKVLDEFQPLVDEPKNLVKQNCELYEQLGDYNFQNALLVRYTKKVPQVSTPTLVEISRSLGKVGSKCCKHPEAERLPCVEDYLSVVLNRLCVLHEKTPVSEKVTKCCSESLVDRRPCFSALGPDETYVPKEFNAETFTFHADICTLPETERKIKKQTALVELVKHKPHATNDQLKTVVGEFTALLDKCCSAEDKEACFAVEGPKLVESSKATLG

Chain of 72 kDa type IV collagenase (P08253 whole entry): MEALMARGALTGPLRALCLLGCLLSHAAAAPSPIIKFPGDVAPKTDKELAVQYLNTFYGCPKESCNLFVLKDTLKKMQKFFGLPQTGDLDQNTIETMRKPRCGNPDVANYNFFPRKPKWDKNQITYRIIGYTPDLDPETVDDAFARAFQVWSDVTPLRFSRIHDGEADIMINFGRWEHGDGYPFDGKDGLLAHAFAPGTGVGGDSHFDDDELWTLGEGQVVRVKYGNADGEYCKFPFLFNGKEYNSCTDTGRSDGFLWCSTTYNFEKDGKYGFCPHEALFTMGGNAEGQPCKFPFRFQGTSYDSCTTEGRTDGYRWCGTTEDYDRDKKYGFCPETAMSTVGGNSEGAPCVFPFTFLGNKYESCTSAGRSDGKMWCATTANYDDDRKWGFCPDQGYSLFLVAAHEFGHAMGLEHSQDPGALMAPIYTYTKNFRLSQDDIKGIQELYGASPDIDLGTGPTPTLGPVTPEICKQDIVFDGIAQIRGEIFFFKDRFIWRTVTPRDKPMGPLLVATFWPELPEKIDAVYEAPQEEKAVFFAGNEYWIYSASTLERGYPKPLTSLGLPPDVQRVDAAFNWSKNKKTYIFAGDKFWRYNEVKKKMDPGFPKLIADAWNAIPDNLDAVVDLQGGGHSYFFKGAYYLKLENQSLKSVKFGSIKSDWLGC

With `CC#Cc1cccc2oc(C(=O)Nc3ccc(-c4ccc(S(=O)(=O)N[C@H](C(=O)O)C(C)C)cc4)cc3)c(C)c12` the Ratio IC50 [1] was 1580.

With `C#Cc1cccc2oc(C(=O)Nc3ccc(-c4ccc(S(=O)(=O)N[C@H](C(=O)O)C(C)C)cc4)cc3)c(C)c12` the Ratio IC50 [1] was 98.

For `Cc1c(C(=O)Nc2ccc(-c3ccc(S(=O)(=O)N[C@H](C(=O)O)C(C)C)cc3)cc2)oc2cccc(NS(C)(=O)=O)c12`, the IC50 (Collagenase 3) was 0.013 µM, the IC50 [2] was 2.15 µM and the Ratio IC50 [1] was 165. It also gave an IC50 [3] greater than 10 µM, an IC50 (Interstitial collagenase) of 12 µM and an IC50 [4] of 11.2 µM. It also gave an IC50 [5] of 2.2 µM, an inhibition [6] of 96% and an inhibition [7] of 69%. It also gave an inhibition [8] of 51%.

`COc1cccc2oc(C(=O)Nc3ccc(-c4ccc(S(=O)(=O)N[C@H](C(=O)O)C(C)C)cc4)cc3)c(C)c12` showed a Ratio IC50 [1] of 110.

For `CC(=O)Nc1cccc2oc(C(=O)Nc3ccc(-c4ccc(S(=O)(=O)N[C@H](C(=O)O)C(C)C)cc4)cc3)c(C)c12`, the Ratio IC50 [1] was 152.

`CCOc1cccc2oc(C(=O)Nc3ccc(-c4ccc(S(=O)(=O)N[C@H](C(=O)O)C(C)C)cc4)cc3)c(C)c12` showed a Ratio IC50 [1] of 485.

Molecule `Cc1c(C(=O)Nc2ccc(-c3ccc(S(=O)(=O)N[C@H](C(=O)O)C(C)C)cc3)nc2)oc2cccc(NS(C)(=O)=O)c12` has an IC50 (Collagenase 3) of 0.04 µM, an IC50 [2] of 7.5 µM and a Ratio IC50 [1] of 188.

`Cc1c(C(=O)Nc2ccc(-c3ccc(S(=O)(=O)N[C@H](C(=O)O)C(C)C)cc3)cc2)oc2cccc(C#N)c12` gave a Ratio IC50 [1] of 157, an IC50 [3] greater than 10 µM and an inhibition [6] of 100%. It also gave an inhibition [7] of 87% and an inhibition [8] of 23%.

For `Cc1c(C(=O)Nc2ccc(-c3ccc(S(=O)(=O)N[C@H](C(=O)O)C(C)C)cc3)cc2)oc2cccc(Oc3ccccc3)c12`, the Ratio IC50 [1] was 263.

For `Cc1c(C(=O)Nc2ccc(-c3ccc(S(=O)(=O)N[C@H](C(=O)O)C(C)C)cc3)cc2)oc2cccc(CCCO)c12`, the Ratio IC50 [1] was 621.

With `Cc1c(C(=O)Nc2ccc(-c3ccc(S(=O)(=O)N[C@H](C(=O)O)C(C)C)cc3)cc2)oc2cccc(N(C)C)c12` the Ratio IC50 [1] was 786.

In the case of `Cc1cccc2oc(C(=O)Nc3ccc(-c4ccc(S(=O)(=O)N[C@H](C(=O)O)C(C)C)cc4)cc3)c(C)c12`, the Ratio IC50 [1] is reported as 287.

`Cc1c(C(=O)Nc2ccc(-c3ccc(S(=O)(=O)N[C@H](C(=O)O)C(C)C)cc3)cc2)oc2cccc(-c3ccoc3)c12` gave a Ratio IC50 [1] of 322.

Work on `Cc1c(C(=O)Nc2ccc(-c3ccc(S(=O)(=O)N[C@H](C(=O)O)C(C)C)cc3)cc2)oc2cccc(-c3ccccc3)c12` yielded a Ratio IC50 [1] of 243.

In the case of `Cc1c(C(=O)Nc2ccc(-c3ccc(S(=O)(=O)N[C@H](C(=O)O)C(C)C)cc3)cc2)oc2cccc(O)c12`, the Ratio IC50 [1] is reported as 63.

In the case of `Cc1c(C(=O)Nc2ccc(-c3ccc(S(=O)(=O)N[C@H](C(=O)O)C(C)C)cc3)cc2)oc2cccc(N)c12`, the Ratio IC50 [1] is reported as 75.

Molecule `COCCCc1cccc2oc(C(=O)Nc3ccc(-c4ccc(S(=O)(=O)N[C@H](C(=O)O)C(C)C)cc4)cc3)c(C)c12` has a Ratio IC50 [1] of 364.

Work on `CNc1cccc2oc(C(=O)Nc3ccc(-c4ccc(S(=O)(=O)N[C@H](C(=O)O)C(C)C)cc4)cc3)c(C)c12` yielded a Ratio IC50 [1] of 108.

In the case of `Cc1c(C(=O)Nc2ccc(-c3ccc(S(=O)(=O)N[C@H](C(=O)O)C(C)C)cc3)cc2)oc2cccc(N3CCOCC3)c12`, the Ratio IC50 [1] is reported as 51.

Work on `COC(=O)C(C)(C)Oc1cccc2oc(C(=O)Nc3ccc(-c4ccc(S(=O)(=O)N[C@H](C(=O)O)C(C)C)cc4)cc3)c(C)c12` yielded a Ratio IC50 [1] of 248.

In the case of `CCc1cccc2oc(C(=O)Nc3ccc(-c4ccc(S(=O)(=O)N[C@H](C(=O)O)C(C)C)cc4)cc3)c(C)c12`, the Ratio IC50 [1] is reported as 613.

`COc1c(Br)ccc2oc(C(=O)Nc3ccc(-c4ccc(S(=O)(=O)N[C@H](C(=O)O)C(C)C)cc4)cc3)c(C)c12` gave a Ratio IC50 [1] of 739 and a fraction unbound (albumin) of less than 0.01.
